Earlier results on one compound are cited in patent US20250325549A1, “ORAL TABLET COMPOSITION OF RUXOLITINIB AND METHOD FOR PREPARING SAME” (SAMYANG HOLDINGS CORPORATION, priority 2021, published 2025).

For the data set the following is noted: Shi et al., J. Clin. Pharmacol. 2012.

As to `N#CC[C@H](C1CCCC1)n1cc(-c2ncnc3[nH]ccc23)cn1` [Ruxolitinib, (3R)-3-cyclopentyl-3-[4-(7H-pyrrolo[2,3-d]pyrimidin-4-yl)pyrazol-1-yl]propanenitrile], the half-life result is reported as “approximately 3 hours”.
